In ChEMBL document CHEMBL1141479 (Bioorg Med Chem Lett, 2008):
The source made the active and inactive calls. The rule behind the calls is not given here.

What was measured:
[1] = target: T1, Progesterone receptor (Homo sapiens, UniProt P06401); test: (§1) Agonist activity at progesterone receptor expressed in CHO cells by luciferase assay; assay type: functional, cell-based
T1 sequence (P06401 whole entry): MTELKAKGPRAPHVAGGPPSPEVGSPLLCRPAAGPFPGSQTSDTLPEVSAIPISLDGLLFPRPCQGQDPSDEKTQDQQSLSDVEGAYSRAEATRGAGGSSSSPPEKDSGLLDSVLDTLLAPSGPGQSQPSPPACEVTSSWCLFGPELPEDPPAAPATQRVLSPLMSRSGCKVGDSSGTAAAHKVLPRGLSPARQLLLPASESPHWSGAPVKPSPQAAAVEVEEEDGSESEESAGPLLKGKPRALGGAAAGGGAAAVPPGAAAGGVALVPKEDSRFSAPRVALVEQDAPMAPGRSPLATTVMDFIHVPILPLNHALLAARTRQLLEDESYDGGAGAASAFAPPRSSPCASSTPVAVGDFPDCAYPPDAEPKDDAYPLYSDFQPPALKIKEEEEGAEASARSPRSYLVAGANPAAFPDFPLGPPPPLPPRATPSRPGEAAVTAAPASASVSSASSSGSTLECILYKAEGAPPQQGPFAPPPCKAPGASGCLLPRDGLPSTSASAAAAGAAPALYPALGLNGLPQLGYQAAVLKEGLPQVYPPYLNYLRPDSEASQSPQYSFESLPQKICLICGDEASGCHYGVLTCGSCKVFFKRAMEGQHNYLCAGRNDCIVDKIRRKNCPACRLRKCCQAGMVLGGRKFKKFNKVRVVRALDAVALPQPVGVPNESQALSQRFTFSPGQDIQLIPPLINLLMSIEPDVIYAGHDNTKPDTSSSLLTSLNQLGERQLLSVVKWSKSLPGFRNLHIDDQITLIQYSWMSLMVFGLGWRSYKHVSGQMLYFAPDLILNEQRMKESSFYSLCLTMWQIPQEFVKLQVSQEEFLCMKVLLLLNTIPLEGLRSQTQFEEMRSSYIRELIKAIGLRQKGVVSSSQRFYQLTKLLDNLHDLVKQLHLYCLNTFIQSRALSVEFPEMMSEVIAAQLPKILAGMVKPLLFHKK

[2] = target: T1, Progesterone receptor; test: (§2) Inhibition of progesterone receptor expressed in CHO cells by luciferase assay; assay type: cell-based
[3] = target: T2, Progesterone receptor (Homo sapiens) (UniProt P06401); test: as §1; assay type: functional, cell-based
T2 sequence (whole entry): T1 sequence (P06401 whole entry)

[4] = target: T2, Progesterone receptor (Homo sapiens); test: as §2; assay type: cell-based

O=C(NC1CCCN2c3cc(Cl)ccc3Oc3ccccc3C12)C(F)(F)F (racemic)
EC50 [1]: 10.6 nM
IC50 [2]: 43 nM

CC(=O)N[C@H]1CCCN2c3cc(Cl)ccc3Oc3ccccc3[C@H]12
EC50 [1]: 4450 nM
IC50 [2]: 193 nM

O=C(N[C@H]1CCCN2c3c(Cl)cccc3Oc3ccccc3[C@H]12)C(F)(F)F
EC50 [1]: 19 nM

O=C(N[C@H]1CCCN2c3cc(Cl)c(Cl)cc3Oc3ccccc3[C@H]12)C(F)(F)F
EC50 [1]: 38 nM
IC50 [2]: 318 nM

O=C(N[C@@H]1CCCN2c3cc(Cl)ccc3Oc3ccccc3[C@@H]12)C(F)(F)F (racemic)
EC50 [1]: 54 nM

N[C@H]1CCCN2c3ccccc3Oc3ccccc3[C@H]12
Activity [3]: inactive
Activity [4]: inactive

CN1c2ccccc2[C@@H]2[C@@H](NC(=O)C(F)(F)F)CCCN2c2cc(Cl)ccc21
EC50 [1]: 9.8 nM

CC(=O)c1cccc2c1N1CCC[C@H](NC(=O)C(F)(F)F)[C@H]1c1ccccc1O2
EC50 [1]: 0.96 nM

N=C(N[C@H]1CCCN2c3cc(Cl)ccc3Oc3ccccc3[C@H]12)C(F)(F)F
EC50 [1]: 10.3 nM
IC50 [2]: 133 nM

O=C(N[C@H]1CCCN2c3cc(Cl)ccc3Sc3ccccc3[C@H]12)C(F)(F)F
EC50 [1]: 2.8 nM

O=C(N[C@H]1CCCN2c3cc(Cl)ccc3Oc3ccccc3[C@H]12)OCCl
EC50 [1]: 598 nM

CC(C)CN[C@H]1CCCN2c3cc(Cl)ccc3Oc3ccccc3[C@H]12
EC50 [1]: 1340 nM

O=C(N[C@H]1CCCN2c3cc(F)ccc3Oc3ccccc3[C@H]12)C(F)(F)F
EC50 [1]: 198 nM
IC50 [2]: 730 nM

CCN[C@H]1CCCN2c3ccccc3Oc3ccccc3[C@H]12
Activity [3]: inactive
Activity [4]: inactive

O=C(N[C@H]1CCCN2c3c(ccc(Cl)c3Cl)Oc3ccccc3[C@H]12)C(F)(F)F
EC50 [1]: 1.6 nM

C=Cc1cccc2c1N1CCC[C@H](NC(=O)C(F)(F)F)[C@H]1c1ccccc1O2
EC50 [1]: 0.81 nM

CC(C)CNC(=S)N[C@H]1CCCN2c3cc(Cl)ccc3Oc3ccccc3[C@H]12
Activity [3]: inactive
IC50 [2]: 314 nM

N[C@H]1CCCN2c3cc(Cl)ccc3Oc3ccccc3[C@H]12
EC50 [1]: 513 nM
Activity [4]: inactive

C=Cc1ccc2c(c1)N1CCC[C@H](NC(=O)C(F)(F)F)[C@H]1c1ccccc1O2
EC50 [1]: > 1000 nM

CN(C(=O)C(F)(F)F)[C@H]1CCCN2c3cc(Cl)ccc3Oc3ccccc3[C@H]12
EC50 [1]: 450 nM

O=C(N[C@H]1CCCN2c3ccccc3Oc3ccccc3[C@H]12)C(F)(F)F
EC50 [1]: 222 nM

FC(F)(F)C(=S)N[C@H]1CCCN2c3cc(Cl)ccc3Oc3ccccc3[C@H]12
EC50 [1]: 1.3 nM

O=C(N[C@H]1CCCN2c3ccc(Cl)cc3Oc3ccccc3[C@H]12)C(F)(F)F
EC50 [1]: 993 nM
IC50 [2]: 2220 nM

CC(=O)c1ccc2c(c1)N1CCC[C@H](NC(=O)C(F)(F)F)[C@H]1c1ccccc1O2
EC50 [1]: 258 nM

O=C(N[C@H]1CCCN2c3cc(Cl)ccc3Cc3ccccc3[C@H]12)C(F)(F)F
EC50 [1]: 2 nM
IC50 [2]: 26 nM

O=C(N[C@H]1CCCN2c3cc(Cl)ccc3Oc3ccccc3[C@H]12)C(F)(F)F
EC50 [1]: 3 nM
IC50 [2]: 4.3 nM
